In patent US11137686B2, “Material for forming underlayer film for lithography, composition for forming underlayer film for lithography, underlayer film for lithography and production method thereof, and resist pattern forming method” (Mitsubishi Gas Chemical Company, Inc., priority 2015, dated 2021):

Columns and labels:
[1] = Thermal weight loss temperature (thermogravimetric measurement, TG); type: physicochemical; settings: heated to 500° C. at 10° C./min, nitrogen stream
Experimental: (Thermal Weight Loss Temperature)
An “EXSTAR 6000 […] apparatus” manufactured by SII NanoTechnology Inc. was used, and about 5 mg of a sample was placed in an unsealed aluminum container and heated to 500° C. at a rate of temperature rise of 10° C./min in a nitrogen gas (30 mL/min) stream. The 10% thermal weight loss temperature was here measured.

[2] = Solubility in PGME and PGMEA at 23° C.; type: physicochemical; settings: for solubility in PGME: 1-methoxy-2-propanol (PGME); for solubility in PGMEA: propylene glycol monomethyl ether acetate (PGMEA)
Experimental: The amount of each compound dissolved in 1-methoxy-2-propanol (PGME) and propylene glycol monomethyl ether acetate (PGMEA) was measured at 23° C., and the results were evaluated with respect to the solubility according to the following criteria.
Evaluation A: 20% by mass or more
Evaluation B: 10% by mass or more and less than 20% by mass
Evaluation C: less than 10% by mass

| SMILES | 10% thermal weight loss temperature [1] | solubility in PGME [2] | solubility in PGME, Evaluation [2] | solubility in PGMEA, Evaluation [2] | solubility in PGMEA [2] |
| --- | --- | --- | --- | --- | --- |
| Oc1ccc2c3c(ccc2c1)Oc1ccc2cc(O)ccc2c1C3c1ccc(I)cc1 [A-2] | ≥ 400 °C | ≥ 20 % by mass | A (Evaluation A: 20% by mass or more) | B (Evaluation B: 10% by mass or more and less than 20% by mass) |  |
| COc1cc(C2c3c(ccc4cc(O)ccc34)Oc3ccc4cc(O)ccc4c32)cc(I)c1O [A-3] | ≥ 400 °C | ≥ 20 % by mass | A (Evaluation A: 20% by mass or more) | A (Evaluation A: 20% by mass or more) | ≥ 20 % by mass |
| Oc1ccc2c3c(ccc2c1)Oc1ccc2cc(O)ccc2c1C3c1ccc(I)o1 [A-4] | ≥ 400 °C | ≥ 20 % by mass | A (Evaluation A: 20% by mass or more) | A (Evaluation A: 20% by mass or more) | ≥ 20 % by mass |
| Oc1ccc2ccc3c(c2c1)C(c1ccc(I)cc1)c1c(ccc2ccc(O)cc12)O3 [B-2] | ≥ 400 °C | ≥ 20 % by mass | A (Evaluation A: 20% by mass or more) | A (Evaluation A: 20% by mass or more) | ≥ 20 % by mass |
| COc1cc(C2c3c(ccc4ccc(O)cc34)Oc3ccc4ccc(O)cc4c32)cc(I)c1O [B-3] | ≥ 400 °C | ≥ 20 % by mass | A (Evaluation A: 20% by mass or more) | A (Evaluation A: 20% by mass or more) | ≥ 20 % by mass |
| Oc1ccc2ccc3c(c2c1)C(c1ccc(I)o1)c1c(ccc2ccc(O)cc12)O3 [B-4] | ≥ 400 °C | ≥ 20 % by mass | A (Evaluation A: 20% by mass or more) | A (Evaluation A: 20% by mass or more) | ≥ 20 % by mass |
